# From patent publication US20040171640A1, “Substituted 1-phenethylpiperidine compounds used as inter alia analgesics” (priority 2001, published 2004)
# Assays:
# [1] = system: tail flick (pain latency) in mice; assay: Analgesic testing by tail flick test in mice; assay type: in vivo; conditions: Mus musculus, read-out: Antinociceptive action in % relative to control group; for inhibition in vivo at 1 mg/kg: 1 mg/kg intravenous
# Excerpt: 2.) Analgesic Testing by Tail Flick Test in Mice
# The mice were each individually put in a test cage and the base of the tail was exposed to the focused heat flux from an electric lamp (tail flick type 50/08/1.bc, Labtec, Dr. Hess). The lamp intensity was so set that the time from switching on of the lamp until sudden flicking away of the tail (pain latency) in untreated mice amounted to 3 to 5 seconds. Prior to administration of the solutions containing the compound according to the invention or the respective comparison solutions, the mice were pre-tested twice within five minutes and the average value of these measurements was calculated as a pre-test average value.
# The solutions of the compound according to the invention of the general formula I and the comparison solutions were then administered intravenously. Pain was measured in each case 10, 20, 40 and 60 minutes after intravenous administration. The analgesic action was determined as an increase in pain latency (% of the maximum possible antinociceptive effect) in accordance with the following formula: […]
# In this formula, the time T0 is the latency time prior to administration, the time T1 is the latency time after administration of active ingredient combination and the time T2 is the maximum exposure period (12 seconds)
# 2.) Analgesic Testing by Tail Flick Test in Mice:
# The in-depth investigation into analgesic efficacy was performed using the tail flick test in mice, as described above.
# [2] = system: phenylquinone-induced writhing in mice; assay: Analgesic testing by phenylquinone-induced writhing test in mice; assay type: in vivo, male NMRI mice; conditions: Mus musculus, read-out: Antinociceptive action in % relative to control group; for inhibition in vivo at 10 mg/kg: 10 mg/kg intravenous
# Method: 1.) Analgesic Testing by Writhing Test in Mice
# The investigation into analgesic efficacy was performed by phenylquinone-induced writhing in mice (modified after: I. C. Hendershot J. Forsaith, J. Pharmacol. Exp. There. 125, 237-240 (1959)). The corresponding literature description is hereby introduced as a reference and is deemed to be part of the disclosure.
# Male NMRI mice weighing from 25 to 30 g were used for this purpose. Groups of 10 animals per substance dose received, 10 minutes after intravenous administration of the compounds tested, 0.3 ml/mouse of a 0.02% aqueous solution of phenylquinone (phenylbenzoquinone, Sigma, Deisenhofen; solution prepared with addition of 5% of ethanol and stored in a water bath at 45° C.) administered intraperitoneally. The animals were placed individually in observation cages. A push button counter was used to record the number of pain-induced stretching movements (writhing reactions=straightening of the torso with stretching of the rear extremities) for 5-20 minutes after phenylquinone administration. The control was provided by animals who received only physiological common salt solution.
# The compounds were tested at the standard dosage of 10 mg/kg. Inhibition of the writhing reactions by a substance was calculated according to the following formula: [formula]
# 1.) Analgesic Testing by Writhing Test in Mice:
# The in-depth investigation into analgesic efficacy was performed using phenylquinone-induced writhing in mice, as described above.
SMILES,inhibition in vivo at 1 mg/kg [1] [%],inhibition in vivo at 10 mg/kg [2] [%],also measured
"CC(=O)N(CCC1CCN(CCc2ccccc2)CC1)c1ccccc1 [Example 22, N-[2-(1-Phenethylpiperidin-4-yl)ethyl]-N-phenylacetamide]",24,–,–
"COc1cccc(NCCC2CCN(CCc3ccccc3)CC2)c1 [Example 14, (3-Methoxyphenyl)-[2-(1-phenethylpiperidin-4-yl)ethyl]amine]",–,100,–
"COc1ccc(NC(=O)CC2CCN(CCc3ccccc3)CC2)cc1Cl [Example 10, N-(3-Chloro-4-methoxyphenyl)-2-(1-phenethylpiperidin-4-yl)acetamide]",–,100,–
"COc1cccc(NC(=O)CC2CCN(CCc3ccccc3)CC2)c1 [Example 9, N-(3-Methoxyphenyl)-2-(1-phenethyl-piperidin-4-yl)acetamide]",–,–,inhibition in vivo at 1 mg/kg ([2]; 1 mg/kg intravenous): 56%
"COc1ccc(NC(=O)CC2CCN(CCc3ccccc3)CC2)cc1 [Example 5, N-(4-Methoxyphenyl)-2-(1-phenethyl-piperidin-4-yl)-acetamide]",–,100,–
"O=C(CC1CCN(CCc2ccccc2)CC1)Nc1ccc(Cl)cc1F [Example 11, N-(4-Chloro-2-fluorophenyl)-2-(1-phenethylpiperidin-4-yl)acetamide]",–,100,–
"CCC(=O)N(CCC1CCN(CCc2ccccc2)CC1)c1ccc(OC)c(Cl)c1 [Example 19, N-(3-Chloro-4-methoxyphenyl)-N-[2-(1-phenethylpiperidin-4-yl)ethyl]propionamide]",35,100,–
"Oc1cccc(NCCC2CCN(CCc3ccccc3)CC2)c1 [Example 17, 3-[2-(1-Phenethylpiperidin-4-yl)ethylamino]phenol]",–,100,–
"O=C(C=C1CCN(CCc2ccccc2)CC1)Nc1ccccc1 [Example 3, 2-(1-Phenethyl-piperidine-4-ylidene)-N-phenylacetamide]",–,69,–
"O=C(CC1CCN(CCc2ccccc2)CC1)Nc1cccc(C(F)(F)F)c1 [Example 12, 2-(1-Phenethylpiperidin-4-yl)-N-(3-trifluoromethyl-phenyl)acetamide]",21,–,–
"COc1ccccc1NC(=O)CC1CCN(CCc2ccccc2)CC1 [Example 4, N-(2-Methoxyphenyl)-2-(1-phenethylpiperidin-4-yl)-acetamide]",–,100,–
"Fc1cc(Cl)ccc1NCCC1CCN(CCc2ccccc2)CC1 [Example 16, (4-Chloro-2-fluorophenyl)-[2-(1-phenethylpiperidin-4-yl)ethyl]amine]",–,80,inhibition in vivo at 10 mg/kg ([1]; 10 mg/kg intravenous): 31%
"O=C(c1ccccc1)N(CCC1CCN(CCc2ccccc2)CC1)c1ccccc1 [Example 24, N-[2-(1-Phenethylpiperidin-4-yl)ethyl]-N-phenylbenzamide]",24,100,–
"FC(F)(F)c1cccc(NCCC2CCN(CCc3ccccc3)CC2)c1 [Example 13, [2-(1-Phenethyl-piperidin-4-yl)ethyl]-(3-trifluoromethyl-phenyl)amine]",31,–,–
"O=C(CC1CCN(CCc2ccccc2)CC1)Nc1ccccc1 [Example 1, 2-(1-Phenethyl-piperidin-4-yl)-N-phenylacetamide]",–,–,inhibition in vivo at 0.1 mg/kg ([1]; 0.1 mg/kg intravenous): 56%
"COc1ccc(NCCC2CCN(CCc3ccccc3)CC2)cc1 [Example 7, (4-Methoxyphenyl)-[2-(1-phenethylpiperidin-4-yl)ethyl]amine]",–,100,–
"Oc1ccccc1NCCC1CCN(CCc2ccccc2)CC1 [Example 8, 2-[2-(1-Phenethylpiperidin-4-yl)ethylamino]phenol]",–,100,–
"Oc1ccc(NCCC2CCN(CCc3ccccc3)CC2)cc1 [Example 15, 4-[2-(1-Phenethylpiperidin-4-yl)ethylamino]phenol]",–,100,–
"COc1ccc(N(CCC2CCN(CCc3ccccc3)CC2)C(=O)c2ccccc2)cc1Cl [Example 20, N-(3-Chloro-4-methoxyphenyl)-N-[2-(1-phenethylpiperidin-4-yl)ethyl]benzamide]",23,88,–
"O=C(CC1CCN(CCc2ccccc2)CC1)Nc1ccccc1OC(F)(F)F [Example 6, 2-(1-Phenethyl-piperidin-4-yl)-N-(2-trifluoromethoxy-phenyl)acetamide]",–,99,–
"CCC(=O)N(CCC1CCN(CCc2ccccc2)CC1)c1ccccc1 [Example 23, N-[2-(1-Phenethylpiperidin-4-yl)ethyl]-N-phenylpropionamide]",–,99,–
"COc1ccc(N(CCC2CCN(CCc3ccccc3)CC2)C(C)=O)cc1Cl [Example 18, N-(3-Chloro-4-methoxyphenyl)-N-[2-(1-phenethylpiperidin-4-yl)ethyl]acetamide]",–,100,–
"CC(=O)N(CCC1CCN(CCc2ccccc2)CC1)c1cccc(C(F)(F)F)c1 [Example 21, N-[2-(1-Phenethylpiperidin-4-yl)ethyl]-N-(3-trifluoromethylphenyl)acetamide]",34,100,–
